Read-outs that look alike come from different tables or passages of the source.
Experiments:
[1] = molecular target: T1, TRAF6/Uev1A/Ubc13 (Homo sapiens, UniProt Q9Y4K3); assay: TRAF6/Uev1A/Ubc13 plate-based ubiquitin ligase assay; assay type: biochemical
T1 sequence (Q9Y4K3 1-522): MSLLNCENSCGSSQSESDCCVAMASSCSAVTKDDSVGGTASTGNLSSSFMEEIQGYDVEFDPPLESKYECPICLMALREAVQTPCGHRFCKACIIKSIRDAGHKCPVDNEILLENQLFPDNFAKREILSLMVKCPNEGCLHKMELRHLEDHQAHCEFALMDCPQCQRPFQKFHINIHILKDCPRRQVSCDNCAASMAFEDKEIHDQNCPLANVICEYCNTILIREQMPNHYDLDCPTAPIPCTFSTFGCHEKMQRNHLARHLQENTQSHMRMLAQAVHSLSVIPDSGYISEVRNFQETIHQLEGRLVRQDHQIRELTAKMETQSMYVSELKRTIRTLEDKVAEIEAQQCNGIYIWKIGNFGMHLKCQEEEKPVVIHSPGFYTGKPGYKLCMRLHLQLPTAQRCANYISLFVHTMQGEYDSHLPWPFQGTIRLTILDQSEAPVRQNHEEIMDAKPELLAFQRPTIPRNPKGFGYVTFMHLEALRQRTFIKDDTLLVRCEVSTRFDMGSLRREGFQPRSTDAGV
Procedure, shortened: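 Ligase activity was read as luminescence from anti-Flag/HRP detection of Flag-ubiquitin bound to casein-blocked Ni-plates alongside His-ubiquitin after a 1 h room-temperature reaction. Buffer: 62.5 mM Tris pH 7.5, 6.25 mM MgCl2, 1.0 mM DTT, 2 μM ATP; E1, Uev1a/Ubc13 and TRAF6 added last to start. IC50s derived across compound concentrations.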

[2] = tested on: ICAM-1 expression in A549 cells; assay: ICAM assay (IL-1 induced ICAM-1/CD54 expression in A549 cells); assay type: cell-based, human; conditions: Homo sapiens, A549, ICAM assay
Source text: The expression of intercellular adhesion molecule (ICAM)-1 in endothelial cells is pivotal in supporting lymphocyte migration across the vascular endothelium. TNF/IL-1 induces the NF-kB pathway in which NF-kB acts as a transcription factor and activation of NF-kB induces ICAM expression. IkB inhibits NF-KB by binding to it and retaining NF-kB in the cytoplasm. Upon cytokine stimulation, several signaling molecule including TRAF6, IKKs, and TAK1 are activated which lead to the phosphorylation of IkB. Phosphorylated IkB is then ubiquitinated by the SCF complex and degraded by proteasome, thereby releasing NF-kB to translocate into the nucleus. In the nucleus, NF-kB binds to DNA and activates transcription of various genes that are involved in inflammation, cell survival, and apoptosis. The ICAM assay is a primary assay for HTS as well as a cell based assay for TRAF6 inhibitors.
The following materials are used 96-well plates; F12K complete medium that includes 10% FBS and 1% P/S (penicillin/streptomycin); 1×PBS; 5 ug/ml IL-1, Human CD54 (CALTAG Laboratory, Cat#MHCD5400-4); anti-mouse-IgG (Jackson Lab, Cat#115-035 146); and A549 cells.
Procedure. 10,000 A549 cells/well were seeded in 100 μl F12K complete medium in a 96-well white plate. The seeded plate was incubate at 37° C. incubator in 5% CO2 overnight. After the overnight incubation, 4 μl of diluted test compound was added and incubated for 1 hour at 37° C. After the 1 hour incubation, 4 μl of 25 ng/ml IL-1 was added to each well and the cells were stimulated at 37° C. for 4 hours.
After stimulation, the cells were stained with CD54 (1:1000 diluted with medium) and anti-mouse IgG (1:1100 diluted with medium) for 1 hour. Subsequently, the medium was removed and each well was washed with 200 μl of PBS three times. Detection of activity was performed by addition of 100 μl/well of lumino substrate.

[3] = tested on: A549 cells; assay: Cell proliferation PAD assay, A549; assay type: cell-based; conditions: Homo sapiens, 48 hours
Procedure, shortened: (§1)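 Cells were seeded at 2,000 per well and dosed 24 h later, in duplicate, with 6.3-fold dilution series from a 10 mM master stock diluted 500-fold into wells. After 48 h at 37 °C, 5% CO2, cells were formamide-fixed, DAPI-stained and imaged to count live, apoptotic and dead cells.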

[4] = tested on: H1299 cells; assay: Cell proliferation PAD assay, H1299; assay type: cell-based; conditions: Homo sapiens, 48 hours
Procedure, shortened: as §1

[5] = NCI-H1299, 6pt, read-out: H1299 6pt
[6] = NCI-H1299, 3pt, read-out: H1299 3pt

| IC50 [1] [µM] | IC50 [2] [µM] | IC50 ([3]; 6pt, read-out: A549 6pt) [µM] | IC50 [4, 5] [µM] | IC50 ([3]; 3pt, read-out: A549 3pt) [µM] | IC50 [4, 6] [µM] | Compound |
| --- | --- | --- | --- | --- | --- | --- |
| ≥ 20 | ≥ 20 | 1 to 20 | 1 to 20 |  |  | O=S(=O)(c1c(Cl)ccc2nonc12)N1CCN(c2ccc(Cl)c(C(F)(F)F)c2)CC1 [compound 182, 5-chloro-4-({4-[4-chloro-3-(trifluoromethyl)phenyl]piperazin-1-yl}sulfonyl)-2,1,3-benzoxadiazole] |
| ≥ 20 | ≥ 20 | 1 to 20 | 1 to 20 |  |  | O=S(=O)(c1ccc(Cl)c2nonc12)N1CCN(CCOCCO)CC1 [compound 185, 2-(2-{4-[(7-chloro-2,1,3-benzoxadiazol-4-yl)sulfonyl]piperazin-1-yl}ethoxy)ethanol] |
| 1 to 20 |  |  |  | ≥ 20 | ≥ 20 | O=S(=O)(c1ccc(N2CCN(c3ccccc3)CC2)c2nonc12)N1CCN(c2ccccc2)CC1 [compound 187, 4-(4-phenylpiperazin-1-yl)-7-[(4-phenylpiperazin-1-yl)sulfonyl]-2,1,3-benzoxadiazole] |
| ≥ 20 |  |  |  | 1 to 20 | 1 to 20 | CN1CCN(S(=O)(=O)c2ccc(Sc3cccc4cccnc34)c3nonc23)CC1 [compound 191, 8-({7-[(4-methylpiperazin-1-yl)sulfonyl]-2,1,3-benzoxadiazol-4-yl}thio)quinoline] |
| ≥ 20 |  |  |  | ≥ 20 | ≥ 20 | Nc1ccc(S(=O)(=O)Nc2ccnc(Cl)c2)c2nonc12 [compound 195, 7-amino-N-(2-chloropyridin-4-yl)-2,1,3-benzoxadiazole-4-sulfonamide] |
| ≥ 20 |  |  |  | ≥ 20 | 1 to 20 | CC1CN(c2ccc3nonc3c2S(=O)(=O)N2CC(C)OC(C)C2)CC(C)O1 (stereo not drawn) [compound 205, 5-(2,6-dimethylmorpholin-4-yl)-4-[(2,6-dimethylmorpholin-4-yl)sulfonyl]-2,1,3-benzoxadiazole] |
| ≥ 20 |  |  |  | ≥ 20 | ≥ 20 | CC1CN(c2ccc(S(=O)(=O)N3CC(C)OC(C)C3)c3nonc23)CC(C)O1 (stereo not drawn) [compound 211, 4-(2,6-dimethylmorpholin-4-yl)-7-[(2,6-dimethylmorpholin-4-yl)sulfonyl]-2,1,3-benzoxadiazole] |
| ≥ 20 |  |  |  | 1 to 20 | ≥ 20 | CC1CN(S(=O)(=O)c2ccc(Sc3cccc4cccnc34)c3nonc23)CC(C)O1 (stereo not drawn) [compound 213, 8-({7-[(2,6-dimethylmorpholin-4-yl)sulfonyl]-2,1,3-benzoxadiazol-4-yl}thio)quinoline] |
| ≥ 20 |  |  |  | ≥ 20 | ≥ 20 | Nc1ccc2cnn(S(=O)(=O)c3ccc(Cl)c4nonc34)c2c1 [compound 221, 1-[(7-chloro-2,1,3-benzoxadiazol-4-yl)sulfonyl]-1H-indazol-6-amine] |
| ≥ 20 |  |  |  | 1 to 20 | ≥ 20 | O=S(=O)(Nc1ccc2[nH]ncc2c1)c1ccc(Sc2cccc3cccnc23)c2nonc12 [compound 224, N-1H-indazol-5-yl-7-(quinolin-8-ylthio)-2,1,3-benzoxadiazole-4-sulfonamide] |
| 1 to 20 |  |  |  | 1 to 20 | 1 to 20 | O=S(=O)(c1ccc(Cl)c2nonc12)N1CCC(Oc2ccccc2C(F)(F)F)CC1 [compound 230, 4-chloro-7-({4-[2-(trifluoromethyl)phenoxy]piperidin-1-yl}sulfonyl)-2,1,3-benzoxadiazole] |
| 1 to 20 |  |  |  | 1 to 20 | 1 to 20 | O=S(=O)(c1ccc(F)c2nonc12)N1CCC(Oc2ccccc2C(F)(F)F)CC1 [compound 232, 4-fluoro-7-({4-[2-(trifluoromethyl)phenoxy]piperidin-1-yl}sulfonyl)-2,1,3-benzoxadiazole] |
| ≥ 20 |  |  |  | ≥ 20 | ≥ 20 | O=S(=O)(c1cccc2nonc12)N1CCC(Oc2ncccn2)CC1 [compound 235] |
| ≥ 20 |  | < 1 | ≥ 20 |  |  | CC1(C)CCN(S(=O)(=O)c2ccc(F)c3nonc23)CC1 [compound 243, 4-[(4,4-dimethylpiperidin-1-yl)sulfonyl]-7-fluoro-2,1,3-benzoxadiazole] |
| 1 to 20 |  | ≥ 20 | 1 to 20 |  |  | O=S(=O)(c1ccc(Sc2ccncc2)c2nonc12)N1CCC(O)(c2ccc(Cl)cc2)CC1 [compound 246, 4-(4-chlorophenyl)-1-{[7-(pyridin-4-ylthio)-2,1,3-benzoxadiazol-4-yl]sulfonyl}piperidin-4-ol] |
| 1 to 20 | ≥ 20 |  |  |  |  | O=S(=O)(Nc1cccc(F)c1F)c1ccc(Cl)c2nonc12 [compound 271, 7-chloro-N-(2,3-difluorophenyl)-2,1,3-benzoxadiazole-4-sulfonamide] |
| 1 to 20 | ≥ 20 |  |  |  |  | O=S(=O)(Nc1cccc(F)c1F)c1ccc(F)c2nonc12 [compound 274, N-(2,3-difluorophenyl)-7-fluoro-2,1,3-benzoxadiazole-4-sulfonamide] |
| ≥ 20 |  |  |  | 1 to 20 | 1 to 20 | O=C(OCc1ccccc1)N1CCN(c2ccc([N+](=O)[O-])c3nonc23)CC1 [compound 278, benzyl 4-(7-nitro-2,1,3-benzoxadiazol-4-yl)piperazine-1-carboxylate] |
| ≥ 20 |  |  |  | 1 to 20 | 1 to 20 | Nc1ccc(N2CCN(c3ncc(C(F)(F)F)cc3Cl)CC2)c2nonc12 [compound 279, 7-{4-[3-chloro-5-(trifluoromethyl)pyridin-2-yl]piperazin-1-yl}-2,1,3-benzoxadiazol-4-amine] |
| ≥ 20 |  | ≥ 20 | ≥ 20 |  |  | CC(C)(C)c1ccc(-c2cccc3nonc23)cc1 [compound 307, 4-(4-Tert-butylphenyl)-2,1,3-benzoxadiazole] |

| Compound | IC50 [1] [µM] | IC50 [2] [µM] | IC50 ([3]; 6pt, read-out: A549 6pt) [µM] | IC50 [4, 5] [µM] | IC50 ([3]; 3pt, read-out: A549 3pt) [µM] | IC50 [4, 6] [µM] |
| --- | --- | --- | --- | --- | --- | --- |
| CC(=O)C1(c2ccccc2)CCN(c2ccc([N+](=O)[O-])c3nonc23)CC1 [compound 231, 1-[1-(7-nitro-2,1,3-benzoxadiazol-4-yl)-4-phenylpiperidin-4-yl]ethanone] | 1 to 20 |  |  |  | ≥ 20 | 1 to 20 |
| O=[N+]([O-])c1ccc(N2CCC(Oc3ccccc3C(F)(F)F)CC2)c2nonc12 [compound 233, 4-nitro-7-{4-[2-(trifluoromethyl)phenoxy]piperidin-1-yl}-2,1,3-benzoxadiazole] | < 1 |  |  |  | ≥ 20 | ≥ 20 |
| CC1(C)CCN(c2ccc([N+](=O)[O-])c3nonc23)CC1 [compound 242, 4-(4,4-dimethylpipendin-1-yl)-7-nitro-2,1,3-benzoxadiazole] | ≥ 20 |  | ≥ 20 | ≥ 20 |  |  |
| O=[N+]([O-])c1ccc(N2CCC(Oc3ncccn3)CC2)c2nonc12 [compound 280, 4-nitro-7-[4-(pyrimidin-2-yloxy)piperidin-1-yl]-2,1,3-benzoxadiazole] | ≥ 20 |  |  |  | ≥ 20 | ≥ 20 |
| O=[N+]([O-])c1ccc(N2CCC(c3ccncc3)CC2)c2nonc12 [compound 283, 4-nitro-7-(4-pyridin-4-ylpiperidin-1-yl)-2,1,3-benzoxadiazole] | ≥ 20 |  |  |  | ≥ 20 | ≥ 20 |

From US20050282818A1, “Ubiquitin ligase inhibitors” (Rigel Pharmaceuticals, Inc., priority 2004, published 2005)
